# Laboratory results taken from BindingDB's records for PubMed 38621327 (Hebei University).
# pEC50, pKi: −log10 of the molar value.
# What was measured:
# [1] = target: Transcriptional enhancer factor TEF-3 (Homo sapiens, UniProt Q15561); test: Inhibition of GST-tagged recombinant TEAD4 (unknown origin) (217 to 434 residues) expressed in Escherichia coli BL21 (DE3) by fluorescence polarization assay
# [2] = Binding affinity to rat heart mitochondria CPT1 assessed as inhibition constant incubated for 3 to 6 mins by Liquid scintillation counting method
# Chain of Transcriptional enhancer factor TEF-3 (Q15561 whole entry, the tested form may be a part): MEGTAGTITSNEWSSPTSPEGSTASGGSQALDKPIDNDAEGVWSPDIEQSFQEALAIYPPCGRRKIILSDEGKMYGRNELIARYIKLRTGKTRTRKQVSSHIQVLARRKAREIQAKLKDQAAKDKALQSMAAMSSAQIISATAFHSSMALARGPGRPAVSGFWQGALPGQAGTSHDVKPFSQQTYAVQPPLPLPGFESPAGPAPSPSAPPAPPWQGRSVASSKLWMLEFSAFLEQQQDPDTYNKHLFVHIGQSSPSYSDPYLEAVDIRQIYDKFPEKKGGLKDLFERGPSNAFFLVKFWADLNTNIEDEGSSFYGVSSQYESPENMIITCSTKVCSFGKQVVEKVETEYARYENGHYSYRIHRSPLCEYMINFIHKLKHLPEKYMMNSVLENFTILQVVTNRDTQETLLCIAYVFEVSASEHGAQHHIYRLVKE
pEC50 [1],pKi [2],Compound
5.23,,O=C(CCl)c1ccccc1Nc1cccc(C(F)(F)F)c1
,5.55,CCCCCCCCCCCCCCC[C@]1(O)C[C@H](CC(=O)[O-])C[N+](C)(C)C1
